This note sets out measurements from patent US7250408B2, “Glucocorticoid receptor antagonists for prophylaxis and therapy of glucocorticoid-mediated hypogonadism, of sexual dysfunction and/or infertility” (Bayer Schering Pharma AG, priority 2002, dated 2007).

Each structure is given as a SMILES string.

In test [1] the target is T1, Glucocorticoid Receptor (Homo sapiens, UniProt P04150).
T1 sequence (P04150 1-777): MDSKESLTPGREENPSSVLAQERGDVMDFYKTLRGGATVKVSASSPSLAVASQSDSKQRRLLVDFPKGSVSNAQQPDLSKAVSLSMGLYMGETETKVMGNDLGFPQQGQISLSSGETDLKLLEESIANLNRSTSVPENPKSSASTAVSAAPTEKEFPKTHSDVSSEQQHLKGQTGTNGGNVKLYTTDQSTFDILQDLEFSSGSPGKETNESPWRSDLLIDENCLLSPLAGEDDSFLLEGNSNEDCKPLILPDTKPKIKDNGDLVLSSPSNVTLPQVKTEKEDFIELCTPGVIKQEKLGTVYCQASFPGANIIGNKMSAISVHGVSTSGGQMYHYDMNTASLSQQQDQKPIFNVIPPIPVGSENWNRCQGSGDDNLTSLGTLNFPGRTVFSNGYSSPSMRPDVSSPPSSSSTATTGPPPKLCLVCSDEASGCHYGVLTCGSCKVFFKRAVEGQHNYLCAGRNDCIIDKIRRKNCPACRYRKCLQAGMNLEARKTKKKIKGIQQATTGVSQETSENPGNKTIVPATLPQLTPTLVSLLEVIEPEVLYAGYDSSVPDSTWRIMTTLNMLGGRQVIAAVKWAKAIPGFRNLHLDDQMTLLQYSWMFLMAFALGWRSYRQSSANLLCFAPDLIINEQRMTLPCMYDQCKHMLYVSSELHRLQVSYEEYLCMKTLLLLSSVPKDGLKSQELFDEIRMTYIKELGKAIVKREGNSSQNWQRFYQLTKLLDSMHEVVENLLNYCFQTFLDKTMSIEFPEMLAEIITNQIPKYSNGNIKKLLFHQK
In words: Glucocorticoid receptor binding, relative binding affinity (RBA). Conditions: RBA relative to dexamethasone = 100.

Test [2] addresses T2, Progesterone Receptor (Homo sapiens, UniProt P06401).
T2 sequence (P06401 1-933): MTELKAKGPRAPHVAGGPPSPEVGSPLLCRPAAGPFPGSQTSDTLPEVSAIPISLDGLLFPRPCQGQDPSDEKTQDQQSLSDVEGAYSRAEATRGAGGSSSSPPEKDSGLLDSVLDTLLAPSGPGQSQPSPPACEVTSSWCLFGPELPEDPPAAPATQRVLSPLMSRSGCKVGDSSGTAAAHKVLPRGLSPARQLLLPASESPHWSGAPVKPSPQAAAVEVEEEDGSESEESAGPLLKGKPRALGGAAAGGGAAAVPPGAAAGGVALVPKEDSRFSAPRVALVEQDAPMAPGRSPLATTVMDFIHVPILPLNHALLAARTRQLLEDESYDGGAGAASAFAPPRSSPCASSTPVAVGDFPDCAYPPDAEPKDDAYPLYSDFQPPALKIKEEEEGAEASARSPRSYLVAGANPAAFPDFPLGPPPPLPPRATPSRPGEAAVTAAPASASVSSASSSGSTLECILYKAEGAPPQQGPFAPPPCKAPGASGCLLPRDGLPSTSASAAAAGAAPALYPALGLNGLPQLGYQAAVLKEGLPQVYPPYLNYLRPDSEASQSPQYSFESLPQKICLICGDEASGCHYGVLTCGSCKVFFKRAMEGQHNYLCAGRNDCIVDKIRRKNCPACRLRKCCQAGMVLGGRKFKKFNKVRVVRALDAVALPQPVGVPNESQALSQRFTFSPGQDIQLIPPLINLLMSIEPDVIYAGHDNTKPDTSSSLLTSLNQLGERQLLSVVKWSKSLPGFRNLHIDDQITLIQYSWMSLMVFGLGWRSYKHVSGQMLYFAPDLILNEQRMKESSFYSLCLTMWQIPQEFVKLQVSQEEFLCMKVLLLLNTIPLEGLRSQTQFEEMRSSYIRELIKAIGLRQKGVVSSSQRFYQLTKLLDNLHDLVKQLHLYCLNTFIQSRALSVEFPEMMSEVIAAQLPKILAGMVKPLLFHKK
In words: Progesterone receptor binding, relative binding affinity (RBA). The following applies: RBA relative to progesterone = 100.

With `COc1cccc(C2CC3(C)C(CCC3(O)C#Cc3ccc(-n4cccc4)cc3)C3CCC4=CC(=O)CCC4=C23)c1` (centres unmarked) [Example 5], the “Relative Binding Affinity to Glucocorticoid Receptor, %” value in test [1] is 57%. The “Relative Binding Affinity to Progesterone Receptor, %” value in test [2] turned out to be 3.4%.
`COc1cccc(C2CC3(C)C(CCC3(O)C#Cc3cccc(C=O)c3)C3CCC4=CC(=O)CCC4=C23)c1` (stereo not drawn) [Example 3, 3-{17-Hydroxy-11β-[3-(methoxy)phenyl]-3-keto-19-nor-17α-pregna-4,9-dien-20-yn-21-yl}benzaldehyde]: in test [1], the “Relative Binding Affinity to Glucocorticoid Receptor, %” value worked out at 159%. In test [2], the “Relative Binding Affinity to Progesterone Receptor, %” value was determined as 4.3%.
For `COc1cccc(C2CC3(C)C(CCC3(O)C#Cc3cccc(C=NO)c3)C3CCC4=CC(=O)CCC4=C23)c1` (stereo not drawn) [Example 10, 3-E-[17-Hydroxy-11β-[3-(methoxy)phenyl)-19-nor-3-keto-17α-pregna-4,9-dien-20-yn-21-yl]benzaldoxime], in test [1], the “Relative Binding Affinity to Glucocorticoid Receptor, %” value stood at 148%. Moreover, the “Relative Binding Affinity to Progesterone Receptor, %” value in test [2] amounted to 10.4%.
For `COc1cccc(C2CC3(C)C(CCC3(O)C#Cc3ccc(O)cc3)C3CCC4=CC(=O)CCC4=C23)c1` (centres unmarked) [Example 6], in test [1], the “Relative Binding Affinity to Glucocorticoid Receptor, %” value was determined as 109%. The “Relative Binding Affinity to Progesterone Receptor, %” value in test [2] was determined as 2.9%.
As to `COc1cccc(C2CC3(C)C(CCC3(O)C#Cc3ccc(S(C)(=O)=O)cc3)C3CCC4=CC(=O)CCC4=C23)c1` (stereo not drawn) [Example 7, 17-Hydroxy-21-(4-mesylphenyl)-11,6-(3-methoxyphenyl)-19-nor-17α-pregna-4,9-dien-20-yn-3-one], the “Relative Binding Affinity to Glucocorticoid Receptor, %” value in test [1] is 155%. Further, the “Relative Binding Affinity to Progesterone Receptor, %” value in test [2] was found to be 1.0%.
As for `COc1cccc(C2CC3(C)C(CCC3(O)C#CC(C)(C)C)C3CCC4=CC(=O)CCC4=C23)c1` (stereo not drawn) [Example 1, 21-tert.Butyl-17-hydroxy-11β-(3-methoxyphenyl)-19-nor-17α-pregna-4,9-dien-20-yn-3-one], the “Relative Binding Affinity to Glucocorticoid Receptor, %” value in test [1] was 85%. In test [2], the “Relative Binding Affinity to Progesterone Receptor, %” value came to 3.4%.
The corresponding values for `COc1cccc(C2CC3(C)C(CCC3(O)C#Cc3ccc(OC(C)=O)cc3)C3CCC4=CC(=O)CCC4=C23)c1` (centres unmarked) [Example 4] are 98% and 2.8%.
